From patent US20110280939A1 (EVEREST PHARM. INDUSTRIAL CO., LTD., priority 2007, published 2011)
Counter-ions that a name gives are not always drawn.

Assay: average excretion half time in human body

With `CN[C@@H](C)[C@@H](O)c1ccccc1` [pseudoephedrine hydrochloride] the “average excretion half time” value was 4.76 ± 0.44 h.
